The text below walks through data of ChEMBL document CHEMBL1201862, “PubChem BioAssay data set” (2004).

Common to all, as to test: NCI tumour cell line growth inhibition, 48 h
Test [1] has as its system Malme-3M.
The subject of test [2] is T47D.
The test system of test [3] is OVCAR-8.
For test [4], the system named is UACC-257.
Test [5] has as its system ACHN.
Test [6] deals with CCRF-CEM.
In test [7] the test system is SK-MEL-2.
The subject of test [8] is RXF 393.
Test [9] concerns LOX IMVI.
Test [10] relates to SR.
The test system of test [11] is MOLT-4.
In test [12] the test system is RPMI-8226.
Test [13] relates to SF-539.
In test [14] the test system is KM12.
Test [15] deals with SK-OV-3.
The subject of test [16] is HCC 2998.
In test [17] the test system is SF-268.
The test system of test [18] is Hs-578T.
Test [19] concerns NCI/ADR-RES.
The test system of test [20] is DMS-273.

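These data come from cells grown in 96-well plates and exposed to compound for 48 hours at five concentrations. Here, GI50 denotes the concentration required for 50% inhibition of growth.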 Calls of active or inactive are those of the source. Cut-off read from the data, not from the text of the source: active = GI50 up to about 1.1 µM and inactive = higher. A value given as a limit tells only on which side of the number the result lay.

For `C[C@]12CC[C@@H]3c4ccc(O)cc4CC[C@H]3[C@@H]1C/C(=C\c1ccncc1)C2=O`, the GI50 in test [1] was 14.1 µM (inactive); in [2], 27.2 µM (inactive); in test [3], 18.5 µM (inactive); in test [4] it was 27.5 µM (inactive); in [5] it was 20.1 µM (inactive); in test [6] it was 15.3 µM (inactive). Besides, the GI50 was 12.8 µM (inactive) in [7]; 20.4 µM (inactive) in test [8]; 20.7 µM (inactive) in [9]; 6.32 µM (inactive) in test [10]; 4.71 µM (inactive) in test [11]; 8.53 µM (inactive) in test [12]. In addition, the GI50 in [13] was 10.9 µM (inactive); in test [14], 13.7 µM (inactive); in test [15], 35.1 µM (inactive); in test [16], 30.6 µM (inactive); in [17], 30.1 µM (inactive); in test [18] it was 14.2 µM (inactive). In addition, in test [19], the GI50 was 17.5 µM (inactive).
Take `Cc1cc(C)c(S(=O)(=O)N(CCCCN)OCCCN)c(C)c1`: the GI50 in test [1] is 20.9 µM (inactive); in test [2], 18.2 µM (inactive); in [3], 17.4 µM (inactive); in [4], 16.2 µM (inactive); in test [5], 22.5 µM (inactive); in test [6], 15.7 µM (inactive). Further, the GI50 is 15.1 µM (inactive) in [7]; 15.2 µM (inactive) in test [8]; 15.2 µM (inactive) in test [9]; 9.59 µM (inactive) in test [10]; 11.7 µM (inactive) in test [11]; 8.04 µM (inactive) in [12]. Further, the GI50 in test [13] is 21.8 µM (inactive); in test [14] it was 19.5 µM (inactive); in test [15], 16.8 µM (inactive); in [16] it was 2.28 µM (inactive); in [17], 18.4 µM (inactive); in test [18] it was 16 µM (inactive). Also, the GI50 in test [19] was 20.7 µM (inactive).
For the compound `O=[N+]([O-])c1cccc2nc3ccccc3c(NCCNCCO)c12`, the GI50 in test [1] was 0.00877 µM (active); in [2], 0.00819 µM (active); in [3], 0.00733 µM (active); in [4] it was 0.0154 µM (active); in test [5] it was 0.00875 µM (active); in test [6], 0.0158 µM (active). Moreover, the GI50 in test [7] is 0.00281 µM (active); in [8] it was 0.00513 µM (active); in [9], 0.00413 µM (active); in test [10] it was 0.00112 µM (active); in test [11] it was 0.00402 µM (active); in test [12], 0.00383 µM (active). Also, the GI50 in test [13] was 0.0326 µM (active); in [14], 0.0122 µM (active); in test [15], 0.0374 µM (active); in [16], 0.00217 µM (active); in test [17], 0.00134 µM (active); in test [18] it was 0.0251 µM (active). For the same compound, the GI50 in test [19] was 0.248 µM (active).
Take `COc1ccc(C2C(=O)c3ccc(OC)cc3OC2c2cccnc2)cc1` (configuration not stated): the GI50 in test [1] was > 100 µM (inactive); in [2], > 100 µM (inactive); in [3] it was 56 µM (inactive); in [4], > 100 µM (inactive); in test [5], > 100 µM (inactive); in [6] it was > 100 µM (inactive). Further, the GI50 in [7] was > 100 µM (inactive); in test [8], 86.3 µM (inactive); in test [9] it was > 100 µM (inactive); in [10] it was > 100 µM (inactive); in [11] it was > 100 µM (inactive); in test [12] it was > 100 µM (inactive). Moreover, the GI50 was > 100 µM (inactive) in test [13]; > 100 µM (inactive) in test [14]; 43.2 µM (inactive) in test [15]; > 100 µM (inactive) in [16]; 49.8 µM (inactive) in test [17]; 45.1 µM (inactive) in test [18]. Also, the GI50 in [19] was > 100 µM (inactive).
With `Fc1ccccc1C1CC(C(c2ccccc2)c2ccccc2)=Nc2ccccc2S1` (configuration not stated), the GI50 in test [1] was 16 µM (inactive); in test [3], 7.71 µM (inactive); in [4], 12.9 µM (inactive); in test [5], 11.7 µM (inactive); in test [6], 1.91 µM (inactive); in test [7] it was 7.89 µM (inactive). Also, the GI50 in [8] was 4.63 µM (inactive); in test [9], 5.78 µM (inactive); in test [11], 2.71 µM (inactive); in test [12], 3.6 µM (inactive); in test [13], 21.9 µM (inactive); in test [14] it was 5.38 µM (inactive). The GI50 in test [15] is 26.9 µM (inactive); in test [16] it was 5.35 µM (inactive); in test [17] it was 11.4 µM (inactive); in [20] it was 4.76 µM (inactive).
Take `COc1cc(C2C(C(=O)O)=C(COC(C)=O)Oc3cc4c(cc32)OCO4)cc(OC)c1OC` (configuration not stated): the GI50 in test [1], in test [3], in test [4], in [5], in test [6] and in [7] was > 100 µM (inactive) throughout. Besides, the GI50 in test [8], in test [9], in [11], in test [12], in [15] and in test [20] was > 100 µM (inactive) throughout.
As to `Clc1ccc(C(SCc2ccccc2)SCc2ccccc2)cc1`, the GI50 in test [1], in test [2], in [3], in [4], in test [5] and in test [6] was > 10 µM (inactive) throughout. Also, the GI50 in test [7], in test [8], in [9], in test [10], in test [11] and in [12] was > 10 µM (inactive) each time. For the same compound, the GI50 in test [13], in [14], in [15], in [16], in test [17] and in [18] was > 10 µM (inactive) each time. Moreover, the GI50 in [19] is > 10 µM (inactive).
As for `COC(=O)C(C(=O)OC)C1CC(=O)c2c(Br)sc(Br)c21` (configuration not stated), the GI50 was 13.4 µM (inactive) in test [1]; 28.6 µM (inactive) in test [2]; 16.8 µM (inactive) in test [3]; 22 µM (inactive) in test [4]; 13.7 µM (inactive) in test [5]; 4.03 µM (inactive) in test [6]. Also, the GI50 was 13.3 µM (inactive) in test [7]; 26.1 µM (inactive) in test [8]; 12.9 µM (inactive) in test [9]; 12.5 µM (inactive) in [10]; 3.33 µM (inactive) in [11]; 11.5 µM (inactive) in test [12]. The GI50 in [13] is 18.6 µM (inactive); in test [14] it was 29.2 µM (inactive); in test [15] it was 17.9 µM (inactive); in test [16], 14.3 µM (inactive); in [17], 18.5 µM (inactive); in [18] it was 20.9 µM (inactive). The GI50 in test [19] was 16.8 µM (inactive).
